Source: US10532088B2, “Adoptive cellular therapy using an agonist of retinoic acid receptor-related orphan receptor gamma and related therapeutic methods” (Lycera Corporation, priority 2014, dated 2020)

Columns and labels:
EG7 tumors = experiment: Adoptive transfer of Tc17 cells treated ex vivo with RORγ agonist to mice bearing EG7 tumors; type: in vivo; conditions: Tc17 cells exposed ex vivo to compound at 10 μM; FIG. 1 Part A
Protocol: EG7 cells (EL4 cells with OVA expression) were grown in RPMI 1640 medium (Invitrogen)/10% heat-inactivated FBS (Hyclone), penicillin-streptomycin, and 50 mM β-mercaptoethanol (Invitrogen); harvested; washed with phosphate-buffered saline (PBS); and then implanted at 1×10^6 cells/mouse in PBS into the flank of mice subcutaneously. Implanted tumor cells grow into visible tumor in about one week. Mice are provided food and water ab libitum throughout the duration of the experiment.
Three to five days after tumor cell transplantation, Tc17 differentiation culture is set up. […]
When a tumor becomes visible, tumor volume is assessed by caliper measurement of the length and width and tumor volume is calculated (0.5×(length×(width)^2). When the tumor becomes visible in most mice (typically 7-10 days after implantation), mice are randomized by tumor volume (tumor volume is <500 mm^3) and divided into three groups. Differentiated Tc17 cells (with or without RORγ agonist) are counted, washed with phosphate buffered saline (PBS), and then the cells are injected into tumor-bearing mice at 5×10^6 cells/mouse intraperitoneally or intravenously using a PBS carrier to deliver the cells. […]
After T cell transfer, tumor volume was assessed every 2 to 3 days. In studies where survival is assessed, mice that are alive and have tumor volume smaller than 3000 mm^3 are considered survivors.

RORγ-LBD = target: T1, RORγ-LBD (Homo sapiens, UniProt P51449); experiment: RORγ-Ligand Binding Domain (LBD) TR-FRET Assay; type: biochemical
T1 construct: HIS-tagged RORγ-LBD protein was expressed in SF9 cells using a baculovirus expression system; made in house; host or cells: SF9 insect cells, baculovirus; lysate used
T1 sequence (P51449 269-508 limits assumed): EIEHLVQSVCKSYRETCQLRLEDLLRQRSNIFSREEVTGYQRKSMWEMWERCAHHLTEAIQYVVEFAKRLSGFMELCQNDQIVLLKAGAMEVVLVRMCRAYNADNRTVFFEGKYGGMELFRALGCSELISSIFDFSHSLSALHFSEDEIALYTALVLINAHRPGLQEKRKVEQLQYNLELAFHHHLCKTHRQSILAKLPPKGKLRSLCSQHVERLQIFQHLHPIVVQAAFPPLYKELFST
Protocol: HIS-tagged RORγ-LBD protein was expressed in SF9 cells using a baculovirus expression system. The lysate was diluted in assay buffer (50 mM Tris pH 7.0, 50 mM KCl, 1 mM EDTA, 0.1 mM DTT, 0.01% BSA) to obtain RORγ-LBD final concentration of ˜3 nM in a 384-well assay plate (need to titrate for each batch of protein).
A stock of biotinylated-LXXLL peptide from coactivator SRC1 (Biotin-[…]) was prepared in assay buffer and added to each well (200 nM final concentration). […] RORγ antagonist ursolic acid was also included at a final concentration of 2 μM. Compounds were diluted in DMSO and further diluted in assay buffer with a final DMSO concentration at 1%.

Gal4-RORγ-LBD = target: T2, Gal4-RORγ-LBD (Homo sapiens, UniProt P51449); experiment: Gal4-RORγ Luciferase Reporter Assay in HEK-293T Cells; type: cell-based
T2 construct: expressed in transfected cells
T2 sequence (P51449 269-508 limits assumed): T1 sequence (P51449 269-508 limits assumed)
Protocol: In the following protocol, HEK-293 cells were transfected with a construct comprising the Gal4 DNA binding domain fused to the ligand binding domain of RORγ (Gal4-RORγ-LBD) in a pcDNA3.1neo plasmid, and also with a reporter construct comprising pGL4.31 Gal4-luciferase (Promega). Control cells were prepared similarly using empty pcDNA3.1neo and pGL4.31 vectors.
Trans-IT reagent (Mirus, 60 μL) at room temperature was added drop wise to OptiMEM (Invitrogen, 1.5 ml). This reagent mixture was mixed by inversion then incubated for 5 to 30 minutes at room temperature. It then was added to a solution of both expression vectors (5 μg each), mixed, and incubated at room temperature for about 20 minutes. HEK-293 cells were harvested from incubation flasks by removing the media, treating with TrypLE Express (Invitrogen), and incubating until the cells detached from the bottom of the flask (approximately 2-5 minutes). […]
The cells were harvested as described above, counted, and centrifuged to obtain the desired number of cells, then re-suspended in complete growth media at 0.75×10^6 cells/mL. […] The luciferase intensity was read on an Envision plate reader (Perkin Elmer). […] The Max Response is the upper plateau in the signal as determined by line-fit using a 4-parameter logistic model in PRISM (GraphPad).

C[C@H]1CN(S(=O)(=O)c2cccc(C(F)(F)F)c2)c2cc(COc3c(F)cccc3Cl)ccc2O1 [Compound 1]
change in tumor volume over time, p vs. DMSO treated Tc17 cells (EG7 tumors): < 0.004 | EC50 (RORγ-LBD; in presence of 2 μM RORγ antagonist ursolic acid): < 500 nM | TR-FRET Assay Average Max Response (RORγ-LBD; upper plateau, signal in absence of ursolic acid or test compound set as 100): **** (a value greater than 200) | EC50 (Gal4-RORγ-LBD; HEK-293 cells, 2 μM ursolic acid): 500 to 5000 nM | Gal4-RORγ Assay Average Max Response (Gal4-RORγ-LBD; upper plateau, luciferase signal in absence of ursolic acid or test compound defined at 100): ** (a value in the range of greater than 90 to 150)
